In US20220364184A1, “COMPOSITIONS AND METHODS FOR TREATMENT OF A POOR PROGNOSIS SUBTYPE OF COLORECTAL CANCER” (DANA-FARBER CANCER INSTITUTE, INC., priority 2019, published 2022):

Legend:
Format in all cases: cell-based, human
DLD-1 cells = test: IF and Co-IP of BCL9 with paraspeckle proteins in DLD-1 cells
Description: (§1) To extract nuclear protein, cells were incubated with cytoplasmic lysis buffer (50 mM Tris-HCl pH=8.0, 20 mM NaCl, 2 mM EDTA, 0.5% Tween-20 containing protease/phosphatase Inhibitor, #5872, Cell Signaling®) on ice for 10 mins, centrifuged at 6000×g, and the precipitate collected. This step was repeated 3 times to remove at much cytoplasmic protein as possible. Subsequently, nuclear lysis buffer (50 mM Tris-HCl pH=7.4, 150 mM NaCl, 2 mM EDTA, 1% Triton X-100(v/v) containing protease/phosphatase inhibitor) was added to the precipitate, and sonication was used to lyse the sample before centrifugation at 16000×g for 15 minutes at 4 degrees. […] In addition, pulled down protein samples were analyzed by silver staining; bands which existed in anti-BCL9 samples, but not in the anti-normal IgG groups, were cut and used for further MS analysis to validate previous results. […]
Cells were cultured on coming Glass Coverslips (354085, BioCoat) contained within the wells of a 24-well plate for 24 hrs, and then fixed using 4% paraformaldehyde. […] The colocalization threshold is calculated by ImageJ2. Dotted staining area of BCL9 was calculated by the following step: confocal images were processed by High Frequency Signaling Removal to filter out the rapidly changing signal. […]

[1] = system: RGS4, CACNA2D1, ADRB1 mRNA; test: mRNA expression by RNA-seq / qRT-PCR; settings: FIG. 3J
Description: RNA was extracted from wild type and BCL9 knockout RKO cells with or without Poly I:C treatment (1 μg/ml) and subsequently purified using the TURBO DNA-free™ Kit (AM1907, invitrogen) to remove any residual DNA. An RNA library was prepared using the ribosome RNA removing method and sequenced with a 150 bp paired-end protocol in the Center for Cancer Computational Biology at the Dana Farber Cancer Institute (PRJNA554110). After quality control (QC) analysis was performed using fastQC, the first 10 bases were trimmed for each read. STAR software was used to map the readings to the human genome (hg19) and duplicates were removed using Picard. HTSeq was used to evaluate the gene expression levels by the count number for each gene and were subsequently annotated using the Ensemble database. Gene differential analysis was then applied to the expression profiling table using R package edgeR. For further analysis, the difference in exon usage between different conditions was calculated and R package DEXSeq was used to find differences between them.

[2] = system: BCL9/β-catenin protein complex; test: Coimmunoprecipitation of BCL9/β-catenin complex
Description: as §1, with “degrees. 1 mg of the nuclear lysate was blocked with 5% BSA for 1 hr at 4 degrees, before overnight incubation with anti-BCL9 (ab37305 Abcam®, 6109 generated in New England Biolabs), NONO (ab70335, Abcam®), SFPQ (ab38148), ILF2 (H00003608-D01, abnova) or β-catenin (9562L, Cell Signaling®) antibodies. Normal rabbit IgG (sc-3888, Santa Cruz®) was used as a negative control. The following day, Protein G and A DynaBeads (10003D, 10002D, ThermoFisher®) were added to the nuclear lysate at a ratio of 1:1 and rotated for an additional 4 hrs.” for “degrees.”

RKO cells [3] = test: Live-cell calcium imaging of spontaneous calcium transients (GCaMP5); settings: calcium wave spike library
Description: 2 mg/ml neomycin was added to the cell culture medium 48 hrs after transfection to generate cell lines with stable GCaMP5 expression and removed one week prior to the initiation of experiment. Calcium transients were captured by live-cell imaging using a confocal microscope. Time lapse imaging was setup so that an image was captured every 0.5 s for 30 minutes, with an exposure time of 0.5 s. Calcium measurements were normalized to background fluorescence and the relative change in calcium (F(t)) over time was calculated by the formula: […]
where F0 was defined as the average intensity of the 20% lowest grey values in a region of interest (ROI), F was defined as the normalized grey values of ROI in time point t. Global synchronicity was calculated by cross correlation method in FluoroSNNAP (seas.upenn.edu/˜molneuro/fluorosnnap.html).

BCL9 [4] = test: Immunoblotting of protein levels; settings: longer exposure, FIG. 3F and 16D
Description: Following lysis, cells were incubated on ice for 10 minutes and centrifuged for 10 minutes at 4 degrees at 16000×g.

BCL9 [5] = test: Immunofluorescence / FISH of BCL9 localization; settings: RKO cells
Description: At various times after the scratch was made, cells were fixed with 4% paraformaldehyde for 15 minutes at room temperature. Immunofluorescence was subsequently used to identify the location of BCL9 (see immunofluorescence method section for more detail).
Cells were cultured on coming Glass Coverslips (354085, BioCoat) contained within the wells of a 24-well plate for 24 hrs, and then fixed using 4% paraformaldehyde. Cells were washed three times with PBS, permeabilized with 0.5% Triton X-100 (Tris-HCl pH=7.6, 150 mM NaCl, 0.5% Triton X-100 (v/v), washing buffer) for 15 minutes at room temperature, and blocked with 5% BSA for 1 hour at room temperature. The cells were incubated overnight at 4 degrees with the following antibodies; anti-BCL9 (ab37305, Abcam®), NONO (TA504777, Origene®), ILF2 (PA5-18718, ThermoFisher®) or β-catenin (610154, BD Transduction Laboratories). The following day, cells were washed 3 times with PBS and incubated with fluorescently tagged anti-mouse (A11029, ThermoFisher®), rabbit (A11035, ThermoFisher®) or goat (A21447, ThermoFisher®) secondary antibodies for 1 hour at room temperature. Cells were washed 3 times with PBS and stained with DAPI (D9542, Millipore-Sigma®) for two mins. Cells were subsequently washed three times with PBS to remove any residual DAPI stain, and then imaged with an SD confocal microscope. The colocalization threshold is calculated by ImageJ2. Dotted staining area of BCL9 was calculated by the following step: confocal images were processed by High Frequency Signaling Removal to filter out the rapidly changing signal. This process removes the noise and non-dotted staining of BCL9. Then, the top 2% signaling areas were selected. High Frequency Signaling Removal and area size was calculated by ImageJ2. NEAT1 and fluorescence probe was purchased from Biosearch Technology (NEAT1, SMF-2036-1). IF combined FISH of BCL9/NEAT1 was performed as recommended by the supplier.

RKO cells [6] = test: Cell viability of wild-type and BCL9 knockout RKO cells after Poly I:C
[7] = system: BCL9/paraspeckle proteins (NONO, SFPQ, ILF2); test: Coimmunoprecipitation of BCL9 with paraspeckle proteins; settings: RKO cells, FIG. 16K
Description: This step was repeated 3 times to remove at much cytoplasmic protein as possible. Subsequently, nuclear lysis buffer (50 mM Tris-HCl pH=7.4, 150 mM NaCl, 2 mM EDTA, 1% Triton X-100(v/v) containing protease/phosphatase inhibitor) was added to the precipitate, and sonication was used to lyse the sample before centrifugation at 16000×g for 15 minutes at 4 degrees. […] The following day, Protein G and A DynaBeads (10003D, 10002D, ThermoFisher®) were added to the nuclear lysate at a ratio of 1:1 and rotated for an additional 4 hrs. The beads were washed 3 times with washing buffer (50 mM Tris-HCl pH=7.4, 200 mM NaCl, 2 mM EDTA, 1% Triton X-100(v/v)). The beads were then re-suspended with 2×LDS sample buffer and boiled for 10 mins. For Immunoblotting, the sample was electrophoresed using SDS-PAGE, transferred to nitrocellulose membrane and blocked using non-fat 5% milk.

Row | Molecule | location and interaction of BCL9 with paraspeckle proteins (DLD-1 cells) | transcription of the full-length RGS4 mRNA isoform ([1]; BCL9 knockout cells) | expression of RGS4, CACNA2D1 and ADRB1 ([1]; wild-type RKO cells, RNA-seq, Poly I:C 1 μg/ml) | amount of BCL9/β-catenin protein complex ([2]; Colo320 cells, FIG. 16J) | length and amplitude of calcium transients (RKO cells [3]; BCL9 knockout cells) | length and amplitude of calcium transients (RKO cells [3]; wild-type cells) | BCL9 and ILF2 protein levels (BCL9 [4]) | partial co-localization between BCL9/IF and NEAT1/FISH signals (BCL9 [5]; FIG. 16I) | accumulation of BCL9 around the nucleus (BCL9 [5]; after 6 hrs, FIG. 16C) | BCL9 accumulation around the nucleolus (BCL9 [5]; longer exposure, FIG. 3F) | growth of cells (RKO cells [6]; BCL9 knockout RKO cells) | growth of cells (RKO cells [6]; wild-type RKO cells) | interaction between BCL9 and β-catenin ([2]; RKO cells, FIG. 16K) | BCL9 binding to paraspeckle proteins [7]
1 | poly I:C | unresponsive | not rescued | increased | reduced | not | enhanced | increased | increased | accumulation of BCL9 around the nucleus was observed | induced further BCL9 accumulation around the nucleolus | not | increased |  | 
2 | Wnt3A: Wnt ligand used to treat RKO cells (protein, UniProt P56704 19-352, looked up) Protein Wnt-3a: SYPIWWSLAVGPQYSSLGSQPILCASIPGLVPKQLRFCRNYVEIMPSVAEGIKIGIQECQHQFRGRRWNCTTVHDSLAIFGPVLDKATRESAFVHAIASAGVAFAVTRSCAEGTAAICGCSSRHQGSPGKGWKWGGCSEDIEFGGMVSREFADARENRPDARSAMNRHNNEAGRQAIASHMHLKCKCHGLSGSCEVKTCWWSQPDFRAIGDFLKDKYDSASEMVVEKHRESRGWVETLRPRYTYFKVPTERDLVYYEASPNFCEPNPETGSFGTRDRTCNVSSHGIDGCDLLCCGRGHNARAERRREKCRCVFHWCCYVSCQECTRVYDVHTCK |  |  |  |  |  |  |  |  |  |  |  |  | increased | did not affect
